Experiments:
Assay in all cases: relative viability (nuclei count vs DMSO), 5 days (fraction); higher = more cells survive
[1] = compound: C1COCCN1C2=NC(=NC3=C2OC4=C3C=CC=N4)C5=CC(=CC=C5)NC(=O)C6=CN=C(C=C6)N + Cc1cc(Nc2cc(N3CCN(C)CC3)nc(Sc3ccc(NC(=O)C4CC4)cc3)n2)n[nH]1 [Tozasertib] (partner 0.1 µM)
Summary of the method: (§1)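 Lung cancer cell lines were pin-tool dosed in 1536-well plates on the day after seeding, with either a lone drug or a fixed anchor-drug dose plus five library-drug doses (not always all listed) in √10 steps. Nuclei were counted on 4× images after 5 days. Relative viability is the ratio of treated-well to vehicle-well nuclei counts, with each value a median of duplicate plates.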

Entinostat + Bortezomib = compound: Nc1ccccc1NC(=O)c1ccc(CNC(=O)OCc2cccnc2)cc1 [Entinostat] + CC(C)C[C@H](NC(=O)[C@H](Cc1ccccc1)NC(=O)c1cnccn1)B(O)O [Bortezomib] (partner 0.002 µM)
Summary of the method: as §1

Entinostat + Pictilisib = compound: Nc1ccccc1NC(=O)c1ccc(CNC(=O)OCc2cccnc2)cc1 [Entinostat] + CS(=O)(=O)N1CCN(Cc2cc3nc(-c4cccc5[nH]ncc45)nc(N4CCOCC4)c3s2)CC1 [Pictilisib] (partner 1 µM)
Summary of the method: as §1

Entinostat + Olaparib = compound: Nc1ccccc1NC(=O)c1ccc(CNC(=O)OCc2cccnc2)cc1 [Entinostat] + O=C(c1cc(Cc2n[nH]c(=O)c3ccccc23)ccc1F)N1CCN(C(=O)C2CC2)CC1 [Olaparib] (partner 8 µM)
Summary of the method: as §1

| Cell Line | relative viability ([1]; first compound 0.02 µM) | relative viability ([1]; first compound 0.06325 µM) | relative viability ([1]; first compound 0.2 µM) | relative viability ([1]; first compound 0.6325 µM) | relative viability ([1]; first compound 2 µM) | relative viability (Entinostat + Bortezomib; first compound 0.02 µM) | relative viability (Entinostat + Bortezomib; first compound 0.06325 µM) | relative viability (Entinostat + Bortezomib; first compound 0.2 µM) | relative viability (Entinostat + Bortezomib; first compound 0.6325 µM) | relative viability (Entinostat + Bortezomib; first compound 2 µM) | relative viability (Entinostat + Pictilisib; first compound 0.02 µM) | relative viability (Entinostat + Pictilisib; first compound 0.06325 µM) | relative viability (Entinostat + Pictilisib; first compound 0.2 µM) | relative viability (Entinostat + Pictilisib; first compound 0.6325 µM) | relative viability (Entinostat + Pictilisib; first compound 2 µM) | relative viability (Entinostat + Olaparib; first compound 0.02 µM) | relative viability (Entinostat + Olaparib; first compound 0.06325 µM) | relative viability (Entinostat + Olaparib; first compound 0.2 µM) | relative viability (Entinostat + Olaparib; first compound 0.6325 µM) | relative viability (Entinostat + Olaparib; first compound 2 µM) |
| --- | --- | --- | --- | --- | --- | --- | --- | --- | --- | --- | --- | --- | --- | --- | --- | --- | --- | --- | --- | --- |
| NCI-H838 | 0.278 | 0.278 | 0.256 | 0.257 | 0.182 | 0.959 | 1.21 | 0.947 | 0.634 | 0.385 | 0.439 | 0.613 | 0.72 | 0.461 | 0.237 | 0.819 | 0.79 | 0.759 | 0.452 | 0.201 |
| HARA | 0.0879 | 0.0809 | 0.112 | 0.0875 | 0.125 | 1.13 | 1.1 | 1.11 | 1.04 | 0.465 | 0.428 | 0.533 | 0.442 | 0.368 | 0.219 | 0.761 | 0.944 | 0.675 | 0.876 | 0.314 |
| NCI-H23 | 0.329 | – | 0.185 | 0.615 | 0.263 | 0.91 | 1.41 | 1.12 | 0.808 | 0.497 | 0.496 | 0.576 | 0.499 | 0.404 | 0.296 | 0.282 | 0.242 | 0.237 | 0.179 | 0.12 |
| LOU-NH91 | 0.591 | 0.738 | 0.649 | 0.652 | 0.465 | 0.496 | 0.52 | 0.534 | 0.545 | 0.512 | 0.522 | 0.529 | 0.549 | 0.452 | 0.394 | 0.863 | 0.904 | 0.919 | 0.806 | 0.676 |
| LCLC-103H | 0.537 | 0.511 | 0.471 | 0.46 | 0.35 | 1.05 | 1.04 | 1.11 | 0.868 | 0.498 | 0.611 | 0.603 | 0.636 | 0.452 | 0.479 | 0.748 | 0.738 | 0.684 | 0.528 | 0.447 |
| SW 1573 | 0.207 | 0.159 | 0.175 | 0.188 | 0.152 | 1.06 | 1.14 | 1.19 | 0.836 | 0.787 | 0.518 | 0.506 | 0.451 | 0.495 | 0.344 | 0.415 | 0.563 | 0.582 | 0.468 | 0.261 |
| EKVX | 0.396 | 0.391 | 0.34 | 0.408 | 0.236 | 1.1 | 0.992 | 0.999 | 0.853 | 0.445 | 0.441 | 0.517 | 0.36 | 0.298 | 0.217 | 0.766 | 0.829 | 0.825 | 0.73 | 0.386 |
| IA-LM | – | – | – | – | – | 0.814 | 0.842 | 1.03 | 0.597 | 0.447 | 0.391 | 0.43 | 0.508 | 0.311 | 0.133 | 0.807 | 0.845 | 0.871 | 0.693 | 0.536 |
| HCC-827 | 0.415 | 0.435 | 0.441 | 0.438 | 0.343 | 0.979 | 1.02 | 0.976 | 0.979 | 0.539 | 1.02 | 0.774 | 0.683 | 0.754 | 0.478 | 0.587 | 0.623 | 0.488 | 0.322 | 0.237 |
| NCI-H661 | 0.34 | 0.347 | 0.328 | 0.342 | 0.354 | 0.956 | 0.883 | 0.861 | 0.781 | 0.7 | 0.47 | 0.614 | 0.559 | 0.565 | 0.407 | 0.696 | 0.721 | 0.641 | 0.567 | 0.339 |
| CAL-12T | 0.325 | 0.27 | 0.206 | 0.24 | 0.177 | 1.19 | 0.973 | 0.96 | 0.99 | 0.665 | 0.537 | 0.546 | 0.544 | 0.303 | 0.323 | 0.728 | 0.781 | 0.854 | 0.767 | 0.572 |
| NCI-H2342 | 0.505 | 0.483 | 0.458 | 0.405 | 0.451 | – | – | – | – | – | – | – | – | – | – | 0.401 | 0.477 | 0.447 | 0.356 | 0.308 |
| SW 900 | 0.519 | 0.762 | 0.371 | 0.373 | 0.279 | – | – | – | – | – | – | – | – | – | – | 0.857 | 0.815 | 0.902 | 0.616 | 0.355 |
| LC-2-ad | 0.428 | 0.499 | 0.46 | 0.473 | 0.392 | 0.961 | 0.895 | 0.818 | 0.591 | 0.197 | 0.44 | 0.5 | 0.431 | 0.126 | 0.124 | 0.785 | 0.635 | 0.633 | 0.527 | 0.3 |
| EPLC-272H | 0.249 | 0.173 | 0.175 | 0.223 | 0.199 | 0.889 | 0.848 | 0.879 | 0.299 | 0.204 | 0.419 | 0.37 | 0.327 | 0.219 | 0.254 | 0.726 | 0.614 | 0.875 | 0.273 | 0.191 |
| A-427 | 0.187 | 0.225 | 0.199 | 0.175 | 0.219 | 0.99 | 0.975 | 0.966 | 0.916 | 0.632 | 0.67 | 0.837 | 0.65 | 0.757 | 0.589 | 0.721 | 0.717 | 0.678 | 0.554 | 0.553 |
| NCI-H650 | 0.769 | 0.766 | 0.737 | 0.799 | 0.513 | 1.02 | 0.916 | 0.773 | 0.426 | 0.171 | 0.934 | 0.914 | 0.75 | 0.579 | 0.269 | 0.43 | 0.425 | 0.363 | 0.21 | 0.171 |

Source: the supplement of paper PMC10307832
